“And” between values parts separate entries of the source, which are not always exact repeats. Equal entries are not always repeated. “Also recorded” adds a separate entry of the source.
Tests used:
[1] = molecular target: T1, full length recombinant rat receptor (nuclear vitamin D receptor) (Rattus norvegicus, UniProt P13053); test: Competitive binding of [3H]-1α,25-(OH)2-D3 to full length recombinant rat vitamin D receptor; conditions: FIG. 1
T1 construct: the full length recombinant rat receptor
T1 sequence (P13053 1-423): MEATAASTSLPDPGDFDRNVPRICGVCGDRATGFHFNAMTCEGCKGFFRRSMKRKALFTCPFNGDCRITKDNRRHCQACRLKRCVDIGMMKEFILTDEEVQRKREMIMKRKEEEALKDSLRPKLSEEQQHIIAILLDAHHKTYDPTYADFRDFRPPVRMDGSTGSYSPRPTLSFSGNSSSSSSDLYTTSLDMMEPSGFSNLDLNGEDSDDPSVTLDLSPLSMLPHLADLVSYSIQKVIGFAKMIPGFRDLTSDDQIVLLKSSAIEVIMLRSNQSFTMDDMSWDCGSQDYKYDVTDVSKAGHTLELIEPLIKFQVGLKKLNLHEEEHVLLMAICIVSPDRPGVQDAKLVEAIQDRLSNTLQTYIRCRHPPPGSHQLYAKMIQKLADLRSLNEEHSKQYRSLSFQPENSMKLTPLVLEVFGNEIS

[2] = tested on: intestinal calcium transport; test: Intestinal calcium transport in vitamin D-deficient rats (everted gut sac); type: in vivo, rat; conditions: oral gavage 7 consecutive days, FIG. 2
Experimental: Values represent means±standard error.
(§1) The intestinal calcium transport and bone mobilization studies were carried out as described by Sicinski et al. (J. Med. Chem. 41, 4662–4674, 1998) and Suda et al. (J. Nutr. 100, 1049–1052, 1970).

[3] = tested on: mobilization of bone calcium; test: Bone calcium mobilization (serum calcium) in vitamin D-deficient rats; type: in vivo, rat; conditions: serum calcium 24 hours after last dose, zero calcium diet, FIG. 3
Experimental: Blood serum calcium was measured 24 hours following the last dose in the rats as described in FIG. 2. Values represent mean±standard error.
as §1
The in vivo tests of increasing serum calcium of rats on a zero calcium diet provides an insight to […] or bone activity of 2MD.

[4] = tested on: HL-60 promyelocytic cells; test: HL-60 cell differentiation into monocytes; type: cell-based; conditions: FIG. 5
Experimental: The differentiation of HL-60 promyelocytic cells into monocytes was determined as described by Ostrem et al. (J. Biol. Chem. 262, 14164–14171, 1987).

[5] = tested on: ovariectomized old female rats; test: Treatment of ovariectomized old female rats (bone mass, serum calcium, femur ash); type: in vivo, rat; conditions: doses of Table 1
Text: Values in the figure are mean±standard error.

Rhesus monkeys = test: Serum calcium after single oral bolus dose in Rhesus monkeys; type: in vivo, Rhesus monkey; parameters: dose or concentration left out as unconfirmed; conditions: 24 hours after dose, FIG. 10
Experimental: FIG. 10 is a line graph illustrating the blood serum calcium levels 24 hours after dose in Rhesus monkeys given a single oral bolus dose of 2-methylene-19-nor-20(S)-1α,25-dihydroxyvitamin D3 (2MD) at varying concentrations;
These and other tests indicate that primates will tolerate 2MD extremely well which may give a very large window between efficacy and the danger of hypercalcemia in man.

[6] = tested on: normal adult female Sprague-Dawley rats; test: Building bone mass in normal adult female rats (BMD, body weight, serum calcium); type: in vivo, rat; conditions: 2.5 ng/kg/d oral
Experimental: All 7-month old, nulliparous female, Sprague-Dawley rats (Harlan Sprague-Dawley, Madison, Wis.) were sham-operated at 7 months of age.
Beginning with arrival in the facility, rats were fed a purified rodent diet (“Diet 11”) prepared in-house (Suda et al, 1970, J. Nutr., 100:1049–1052) and containing 0.47% calcium, 0.3% phosphorus and 1.6 IU vitamin D3/g. To maintain consistent body weights (monitored weekly), rats were fed a total of 150 g diet/week, i.e. 21.5 g/day/rat.
Rats were dosed daily beginning 5–6 weeks post-surgery. Neobee oil (vehicle) or 2MD were delivered to the back of the tongue in 100 μL. The dosing solution concentrations were adjusted monthly based on group-average body weights.
At predose and at 1, 2, 4, 6, 10, 11, 18 and 25 weeks after dose, blood was collected 24 hr. after the most recent dose from the tail artery of ether-anesthetized rats. Serum was diluted in 0.1% lanthum chloride and the concentration of calcium determined by atomic absorption spectrometry. The values shown are averages for all rats, and include standard errors.
Both total body BMD and appendicular (right distal and proximal femur) BMD were determined by dual-energy X-ray absorptiometry (Lunar DPXα-Madison, Wis.; Small Animal Software-version 1.0e) at weeks 0, 8, 16, and 24. Appendicular BMD was performed as described (Haffa et al, 2000, J. Bone Min. Res. 15:872). The values shown are averages for all rats and include standard errors.

change in serum calcium at dosage levels that elevated bone mass [5]: no change in serum calcium | elevation of serum calcium concentration (Rhesus monkeys): does not cause significant elevation
SMILES: C=C1[C@H](O)CC(=C/C=C2\CCC[C@]3(C)[C@@H]([C@@H](C)CCCC(C)(C)O)CC[C@@H]23)C[C@H]1O [2MD, 2-methylene-19-nor-20(S)-1α,25-dihydroxyvitamin D3]
binding to the receptor as compared to the standard 1,25-(OH)2D3 [1]: bound equally well; also recorded: about as active as 1,25(OH)2D3 | intestinal calcium transport activity compared with 1,25(OH)2D3 [2]: activity similar to that of 1,25-dihydroxyvitamin D3; also recorded: approximately equal | potency relative to 1,25(OH)2D3 in mobilization of bone calcium [3]: 100 times and 80–100 times | potency relative to 1,25(OH)2D3 on HL-60 cell differentiation [4]: 10–50 times | increase in cancellous bone BMD ([6]; 24 weeks, FIG. 12A): 14% | increase in cortical bone ([6]; FIG. 12B): 6% | change in body weight ([6]; FIG. 13A): absence of any change | change in serum calcium ([6]; FIG. 13B): absence of any change | total body BMD versus vehicle control ([6]; from 8 to 24 weeks, FIG. 11): increased above vehicle-control animals

From US7214671B2, “Use of 2-methylene-19-nor-20(S)-1α,25-dihydroxyvitamin D3 for the prophylaxis of bone diseases” (Wisconsin Alumni Research Foundation, priority 2004, dated 2007)
